From US20080069785A1, “PEST-CONTROL COMPOSITIONS, AND METHODS AND PRODUCTS UTILIZING SAME” (priority 2004, published 2008) come the findings set out here.

Values joined by “and” are separate entries in the source; they are usually repeats but may differ in a detail not shown here. Identical values can stand only once.

The assay concerns Eastern subterranean termite, Reticulitermes flavipes. As to the kind of experiment: Termite direct application test (Example 20). The following applies: 1 uL onto the back or thorax. It is filed as in vivo. The protocol:
In this test, in addition to water as a negative control, a positive control, in the form of the commercially available pesticide Raid® in also included. The method in this test simply involved pippetting 1 uL of the formulation onto the back or thorax of the Eastern subterranean termite, Reticulitermes flavipes, and recording the time to death. This test was performed on Mar. 13, 2007. The formulations used in the test were: (a) Raid®, a commercially available pesticide, (b) Undecanone, (c) BioUD™10, (d) BioUD™5, (e) Soy Methyl Ester (SME), and (f) water as a negative control.

For `CCCCCCCCCC(C)=O` [Undecanone, 2-Undecanone], the “Time-to-death (sec), mean” value was determined as 171.5 s. Also, the “Time-to-death” value (individual termite) was 157 s and 389 s and 68 s and 174 s and 146 s.
